Source: patent US4294833A, “Substituted 4-hydroxy-isophthalic acid picolylamides having a pharmaceutical activity in thromboembolic disorders” (Societa Italo-Britannica, priority 1977, dated 1981)

Test system: thrombin-induced coagulation of platelet rich plasma
Assay: Antithrombin activity on PRP, Hartert's thromboelastograph
Format: in vivo, New Zealand rabbits
Conditions: Oryctolagus cuniculus, Platelet, ip, percent decrease of index ma/[r+k] vs before treatment; 20 mg/kg intraperitoneal, rabbits
Procedure: Determination of the antithrombin activity
The antithrombin activity on the PRP (platelet rich plasma) obtained following the above described method was assessed by Hartert's thromboelastograph (Hellige model). The coagulation was induced by adding to 0.25 ml of plasma 0.06 ml of a thrombin solution (Roche Topostasin® per os) at 60 units*, pH 7.4**. The antithrombin activity was assessed in terms of a percent decrease of the index (ma/[r+k]) which was calculated from the thromboelastograph diagram, wherein r is the reaction time, k is the speed of the coagulum formation and ma is the maximum spread of the tong, after an intraperitoneal treatment with a dose of 20 mg/kg of each compound under examination, referred to the same index obtained before the treatment (control).
(§1) In tables I and II are further indicated for each compound the method of preparation; the melting point PF in °C; the platelet antiaggregant activity (AAP) expressed in terms of DI50 in mg/kg, referred to ADP and thrombin respectively; the antithrombin activity (AT) in %; the anticoagulant activity (AC) in %; the fibrinolytic activity (FL) in %; the acute toxicity (LD50) in mice, intraperitoneally, in mg/kg, as previously defined.

Row | Structure (SMILES) | inhibition in vivo at 20 mg/kg
1 | C=C(C)Oc1c(Cl)cc(C(=O)N(C)Cc2cccnc2)cc1C(=O)N(C)Cc1cccnc1 [Example 52] | 29.1%
2 | CC=COc1c(Cl)cc(C(=O)N(Cc2cccnc2)C(C)(C)CC)cc1C(=O)N(Cc1cccnc1)C(C)(C)CC [Example 47] | 25.6%
3 | C=CC(C)Oc1ccc(C(=O)NCc2cccnc2)cc1C(=O)NCc1cccnc1 (stereo not drawn) [Example 54] | 46.3%
4 | CCOc1ccc(C(=O)N(Cc2cccnc2)CC(C)C)cc1C(=O)N(Cc1cccnc1)CC(C)C [Example 44] | 38.6%
5 | C=C(C)Oc1c(Cl)cc(C(=O)N(C)Cc2ccncc2)cc1C(=O)N(C)Cc1ccncc1 [Example 68] | 35.2%
6 | CCOc1ccc(C(=O)N(CCCC(C)C)Cc2cccnc2)cc1C(=O)N(CCCC(C)C)Cc1cccnc1 [Example 46] | 32.7%
7 | COc1ccc(C(=O)N(Cc2cccnc2)C(C)C)cc1C(=O)N(Cc1cccnc1)C(C)C [Example 43] | 39.4%
8 | CCC(CC)Oc1c(Cl)cc(C(=O)NCc2cccnc2)cc1C(=O)NCc1cccnc1 [Example 30] | 27.9%
9 | CCC(C)Oc1ccc(C(=O)NCc2cccnc2)cc1C(=O)NCc1cccnc1 (stereo not drawn) [Example 14] | 38.1%
10 | CCCCOc1c(Cl)cc(C(=O)NCc2cccnc2)cc1C(=O)NCc1cccnc1 [Example 26] | 33.5%

Test system: platelet aggregation induced by thrombin
Assay: Platelet aggregation inhibitory activity in vivo (Born aggregometer), thrombin-induced
Set-up: species or system New Zealand rabbits
Conditions: Oryctolagus cuniculus, Platelet, ip, dose for 50% inhibition of thrombin-induced aggregation curve; rabbits, intraperitoneal, blood 2, 4 and 6 hours after injection; read-out: platelet antiaggregant activity (AAP), DI50, Thrombin
Procedure: (§2) Determination of the platelet aggregation inhibitory activity in vivo
(§3) The activity of the above described compounds as platelet antiaggregant was tested in vivo on rabbits, by the Born aggregometer. The inhibition of the aggregation curve induced by ADP and thrombin was assessed with different drug concentrations according to the platelet reactivity. New Zealand rabbits which had been held fasting for 12 hours with water ad libitum, were anaesthetized with Nembutal in a dose of 35 mg/kg intramuscolarly. The blood was withdrawn from the carotidal arthery, before (control) and 2, 4, and 6 hours after the intraperitoneal injection of the compounds under examination (at the dose indicated below). The blood samples were taken up in a 3.8% aqueous solution of sodium citrate in a ratio 10:1 and thereupon centrifuged at 1500 r.p.m. for 10 minutes, for obtaining a PRP (platelet rich plasma). A portion of such a plasma was thereupon centrifuged at 8000 r.p.m. for 10 minutes, for obtaining a PPP (platelet lean plasma) which was used for zeroing the measuring apparatus.
(§4) From the results of said experiments, there was determined the dose of each product in mg/kg body weight able to induce a 50% inhibition of the aggregation curve (DI50) after treatment, referred to the curve obtained by the same control plasma before treatment.
as §1

Row | Structure (SMILES) | ED50
11 | C=C(C)Oc1c(Cl)cc(C(=O)N(C)Cc2cccnc2)cc1C(=O)N(C)Cc1cccnc1 [Example 52] | 32.1 mg/kg
12 | CC=COc1c(Cl)cc(C(=O)N(Cc2cccnc2)C(C)(C)CC)cc1C(=O)N(Cc1cccnc1)C(C)(C)CC [Example 47] | 36.2 mg/kg
13 | C=CC(C)Oc1ccc(C(=O)NCc2cccnc2)cc1C(=O)NCc1cccnc1 (stereo not drawn) [Example 54] | 21.2 mg/kg
14 | CCOc1ccc(C(=O)N(Cc2cccnc2)CC(C)C)cc1C(=O)N(Cc1cccnc1)CC(C)C [Example 44] | 20.9 mg/kg
15 | C=C(C)Oc1c(Cl)cc(C(=O)N(C)Cc2ccncc2)cc1C(=O)N(C)Cc1ccncc1 [Example 68] | 30 mg/kg
16 | CCOc1ccc(C(=O)N(CCCC(C)C)Cc2cccnc2)cc1C(=O)N(CCCC(C)C)Cc1cccnc1 [Example 46] | 24.7 mg/kg
17 | COc1ccc(C(=O)N(Cc2cccnc2)C(C)C)cc1C(=O)N(Cc1cccnc1)C(C)C [Example 43] | 20.6 mg/kg
18 | CCC(CC)Oc1c(Cl)cc(C(=O)NCc2cccnc2)cc1C(=O)NCc1cccnc1 [Example 30] | 29.5 mg/kg
19 | CCC(C)Oc1ccc(C(=O)NCc2cccnc2)cc1C(=O)NCc1cccnc1 (stereo not drawn) [Example 14] | 29.7 mg/kg
20 | CCCCOc1c(Cl)cc(C(=O)NCc2cccnc2)cc1C(=O)NCc1cccnc1 [Example 26] | 30.2 mg/kg

Test system: not listed separately
Assay: Acute toxicity, intraperitoneal
Conditions: mouse, in vivo, ip, male Swiss mice, intraperitoneal, 7 days observation; preliminary, by graphic interpolation; read-out: acute toxicity (LD50 / DL50)
Procedure: The acute toxicity limit was determined intraperitoneally on male Swiss mice, weighing 20±2 g, held fasting for 18 hours with water ad libitum.
The animals were maintained under observation for 7 days of treatment, by examining the general symptomatology and noting the death sequency. The preliminary DL50 in mg/kg body weight was calculated by graphic interpolation of the results as obtained.
as §1

Row | Structure (SMILES) | LD50 at 168 h
21 | C=C(C)Oc1c(Cl)cc(C(=O)N(C)Cc2cccnc2)cc1C(=O)N(C)Cc1cccnc1 [Example 52] | 194 mg/kg
22 | CC=COc1c(Cl)cc(C(=O)N(Cc2cccnc2)C(C)(C)CC)cc1C(=O)N(Cc1cccnc1)C(C)(C)CC [Example 47] | 210 mg/kg
23 | C=CC(C)Oc1ccc(C(=O)NCc2cccnc2)cc1C(=O)NCc1cccnc1 (stereo not drawn) [Example 54] | 355 mg/kg
24 | CCOc1ccc(C(=O)N(Cc2cccnc2)CC(C)C)cc1C(=O)N(Cc1cccnc1)CC(C)C [Example 44] | 465 mg/kg
25 | C=C(C)Oc1c(Cl)cc(C(=O)N(C)Cc2ccncc2)cc1C(=O)N(C)Cc1ccncc1 [Example 68] | 255 mg/kg
26 | CCOc1ccc(C(=O)N(CCCC(C)C)Cc2cccnc2)cc1C(=O)N(CCCC(C)C)Cc1cccnc1 [Example 46] | 451 mg/kg
27 | COc1ccc(C(=O)N(Cc2cccnc2)C(C)C)cc1C(=O)N(Cc1cccnc1)C(C)C [Example 43] | 478 mg/kg
28 | CCC(CC)Oc1c(Cl)cc(C(=O)NCc2cccnc2)cc1C(=O)NCc1cccnc1 [Example 30] | 198 mg/kg
29 | CCC(C)Oc1ccc(C(=O)NCc2cccnc2)cc1C(=O)NCc1cccnc1 (stereo not drawn) [Example 14] | 227 mg/kg
30 | CCCCOc1c(Cl)cc(C(=O)NCc2cccnc2)cc1C(=O)NCc1cccnc1 [Example 26] | 205 mg/kg

Test system: platelet aggregation induced by ADP
Assay: Platelet aggregation inhibitory activity in vivo (Born aggregometer), ADP-induced
Set-up: species or system New Zealand rabbits
Conditions: Oryctolagus cuniculus, Platelet, ip, dose for 50% inhibition of ADP-induced aggregation curve; rabbits, intraperitoneal, blood 2, 4 and 6 hours after injection; read-out: platelet antiaggregant activity (AAP), DI50, ADP
Procedure: as §2, §3, §4, §1

Row | Structure (SMILES) | ED50
31 | C=C(C)Oc1c(Cl)cc(C(=O)N(C)Cc2cccnc2)cc1C(=O)N(C)Cc1cccnc1 [Example 52] | 49.2 mg/kg
32 | CC=COc1c(Cl)cc(C(=O)N(Cc2cccnc2)C(C)(C)CC)cc1C(=O)N(Cc1cccnc1)C(C)(C)CC [Example 47] | 55.8 mg/kg
33 | C=CC(C)Oc1ccc(C(=O)NCc2cccnc2)cc1C(=O)NCc1cccnc1 (stereo not drawn) [Example 54] | 32.3 mg/kg
34 | CCOc1ccc(C(=O)N(Cc2cccnc2)CC(C)C)cc1C(=O)N(Cc1cccnc1)CC(C)C [Example 44] | 28.7 mg/kg
35 | C=C(C)Oc1c(Cl)cc(C(=O)N(C)Cc2ccncc2)cc1C(=O)N(C)Cc1ccncc1 [Example 68] | 47.5 mg/kg
36 | CCOc1ccc(C(=O)N(CCCC(C)C)Cc2cccnc2)cc1C(=O)N(CCCC(C)C)Cc1cccnc1 [Example 46] | 34.3 mg/kg
37 | COc1ccc(C(=O)N(Cc2cccnc2)C(C)C)cc1C(=O)N(Cc1cccnc1)C(C)C [Example 43] | 27.3 mg/kg
38 | CCC(CC)Oc1c(Cl)cc(C(=O)NCc2cccnc2)cc1C(=O)NCc1cccnc1 [Example 30] | 42.2 mg/kg
39 | CCC(C)Oc1ccc(C(=O)NCc2cccnc2)cc1C(=O)NCc1cccnc1 (stereo not drawn) [Example 14] | 46.4 mg/kg
40 | CCCCOc1c(Cl)cc(C(=O)NCc2cccnc2)cc1C(=O)NCc1cccnc1 [Example 26] | 43.7 mg/kg

Test system: blood coagulum
Assay: Fibrinolytic activity, Fearnley method (lysis of blood coagulum in toto)
Format: in vivo
Conditions: Oryctolagus cuniculus, ip, 0.5 h, percent decrease of coagulum weight after 30 minutes at 37° C.; 25 mg/kg intraperitoneal, rabbits; read-out: fibrinolytic activity (FL)
Procedure: Determination of the fibrinolytic activity
The determination of the fibrinolytic activity was made following the Fearnley method for the lysis of the blood coagulum in toto.
0.2 ml of blood were withdrawn from the marginal vein of the ear of rabbits treated in the same way as the previously described tests, before and after an intraperitoneal injection of the compounds under test at a dose level of 25 mg/kg for each compound.
The blood samples were placed in test tubes containing 1.7 ml of phosphate buffer at pH 7.4 and 0.1 ml of thrombin (Roche Topostasin ® per os) at 50 units NIH/ml, and maintained in an ice bath. The test tubes were maintained at said temperature for 30 minutes and thereupon were transferred to a temperature controlled water bath at 37° C.
The fibrinolytic activity was determined as a percent decrease of the coagulum weight, measured after incubation for 30 minutes at 37° C.
as §1

Row | Structure (SMILES) | fibrinolytic activity (percent decrease of coagulum weight) at 25 mg/kg
41 | C=C(C)Oc1c(Cl)cc(C(=O)N(C)Cc2cccnc2)cc1C(=O)N(C)Cc1cccnc1 [Example 52] | 26.7%
42 | CC=COc1c(Cl)cc(C(=O)N(Cc2cccnc2)C(C)(C)CC)cc1C(=O)N(Cc1cccnc1)C(C)(C)CC [Example 47] | 19.5%
43 | C=CC(C)Oc1ccc(C(=O)NCc2cccnc2)cc1C(=O)NCc1cccnc1 (stereo not drawn) [Example 54] | 35.2%
44 | CCOc1ccc(C(=O)N(Cc2cccnc2)CC(C)C)cc1C(=O)N(Cc1cccnc1)CC(C)C [Example 44] | 32.5%
45 | C=C(C)Oc1c(Cl)cc(C(=O)N(C)Cc2ccncc2)cc1C(=O)N(C)Cc1ccncc1 [Example 68] | 30%
46 | CCOc1ccc(C(=O)N(CCCC(C)C)Cc2cccnc2)cc1C(=O)N(CCCC(C)C)Cc1cccnc1 [Example 46] | 29.1%
47 | COc1ccc(C(=O)N(Cc2cccnc2)C(C)C)cc1C(=O)N(Cc1cccnc1)C(C)C [Example 43] | 33.6%
48 | CCC(CC)Oc1c(Cl)cc(C(=O)NCc2cccnc2)cc1C(=O)NCc1cccnc1 [Example 30] | 25.8%
49 | CCC(C)Oc1ccc(C(=O)NCc2cccnc2)cc1C(=O)NCc1cccnc1 (stereo not drawn) [Example 14] | 22.5%
50 | CCCCOc1c(Cl)cc(C(=O)NCc2cccnc2)cc1C(=O)NCc1cccnc1 [Example 26] | 28.4%

Test system: CaCl2-induced plasma coagulation
Assay: Anticoagulant activity on PRP, Hartert's thromboelastograph
Format: in vivo, New Zealand rabbits
Conditions: Oryctolagus cuniculus, ip, percent increase of total time for coagulum formation (r+k) vs before treatment; 25 mg/kg intraperitoneal, rabbits; read-out: anticoagulant activity (AC)
Procedure: Determination of the anticoagulant activity
The anticoagulant activity was also assessed on PRP of animals treated as described in the preceding methods, by using again Hartert's thromboelastograph method.
The plasma coagulation was induced by adding to 0.25 ml PRP a 1.29% solution of CaCl2.
The anticoagulant effect was determined as a percent increase of the total time for the coagulum formation (the index r+k can be obtained from the thromboelastograph diagram) in a plasma after treatment, referred to the same index obtained before the treatment (control). Again the dose level was 25 mg/kg for each compound under examination, intraperitoneally.
as §1

Row | Structure (SMILES) | change in vivo at 25 mg/kg
51 | C=C(C)Oc1c(Cl)cc(C(=O)N(C)Cc2cccnc2)cc1C(=O)N(C)Cc1cccnc1 [Example 52] | 14.2%
52 | CC=COc1c(Cl)cc(C(=O)N(Cc2cccnc2)C(C)(C)CC)cc1C(=O)N(Cc1cccnc1)C(C)(C)CC [Example 47] | 12.8%
53 | C=CC(C)Oc1ccc(C(=O)NCc2cccnc2)cc1C(=O)NCc1cccnc1 (stereo not drawn) [Example 54] | 18.7%
54 | CCOc1ccc(C(=O)N(Cc2cccnc2)CC(C)C)cc1C(=O)N(Cc1cccnc1)CC(C)C [Example 44] | 19.3%
55 | C=C(C)Oc1c(Cl)cc(C(=O)N(C)Cc2ccncc2)cc1C(=O)N(C)Cc1ccncc1 [Example 68] | 15.5%
56 | CCOc1ccc(C(=O)N(CCCC(C)C)Cc2cccnc2)cc1C(=O)N(CCCC(C)C)Cc1cccnc1 [Example 46] | 15.5%
57 | COc1ccc(C(=O)N(Cc2cccnc2)C(C)C)cc1C(=O)N(Cc1cccnc1)C(C)C [Example 43] | 20.7%
58 | CCC(CC)Oc1c(Cl)cc(C(=O)NCc2cccnc2)cc1C(=O)NCc1cccnc1 [Example 30] | 22.3%
59 | CCC(C)Oc1ccc(C(=O)NCc2cccnc2)cc1C(=O)NCc1cccnc1 (stereo not drawn) [Example 14] | 22.3%
60 | CCCCOc1c(Cl)cc(C(=O)NCc2cccnc2)cc1C(=O)NCc1cccnc1 [Example 26] | 22.2%
